Assay results reported in patent US8822471B2, “Compounds, pharmaceutical compositions and uses thereof” (Boehringer Ingelheim International GmbH, priority 2011, dated 2014).

Molecular target: T1, mutant form of the human GPR119 receptor (Homo sapiens, UniProt Q8TDV5, S329A/T327A)
T1 construct: T327 & S329 changed to alanines; expressed in transfected cells
T1 sequence (Q8TDV5 2-335 T327A/S329A): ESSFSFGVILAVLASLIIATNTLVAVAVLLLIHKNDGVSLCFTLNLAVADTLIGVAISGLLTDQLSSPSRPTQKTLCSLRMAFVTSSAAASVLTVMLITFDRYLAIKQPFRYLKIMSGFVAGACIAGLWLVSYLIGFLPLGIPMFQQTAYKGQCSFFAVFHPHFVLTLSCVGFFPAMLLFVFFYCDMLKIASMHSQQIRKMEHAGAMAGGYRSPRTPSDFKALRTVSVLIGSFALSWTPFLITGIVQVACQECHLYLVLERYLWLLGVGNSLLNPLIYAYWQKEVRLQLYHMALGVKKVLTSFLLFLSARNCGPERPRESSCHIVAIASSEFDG
Assay: LANCE cAMP-384 assay in HEK293 cells stably expressing a mutant form of the human GPR119 receptor
Assay type: cell-based
Conditions: HEK293 cells stably expressing mutant human GPR119, LANCE cAMP-384 Kit, 20 min at 37° C.
Procedure: Quantitative detection of cAMP accumulation from cells expressing human GPR119 receptor is achieved using Perkin Elmer's LANCE cAMP-384 Kit (Cat#AD0264) according to the manufacturer's protocol. Briefly, HEK293 cells stably expressing a mutant form of the human GPR119 receptor as assay tool (Methionine 1 replaced with the amino acid sequence […], and T327 & S329 changed to alanines; SEQ ID No. 1) are grown to 50-70% confluency in cell culture media (DMEM, 10% heat inactivated Fetal Bovine Serum, 50 I.U./mL penicillin, 50 μg/mL streptomycin, 10 mM HEPES, 20 μg/mL G418 Sulfate). On the day of the assay, GPR119 stable HEK293 cells are lifted from the tissue culture plate and 1000 cells/well are incubated along with various concentrations of test compounds for 20 min at 37° C. Detection Buffer (50 mM HEPES, 10 mM calcium chloride, 0.35% Triton X-100, 1 mg/mL BSA) containing cAMP-specific antibody is then added to all wells and allowed to equilibrate in the dark for 10 minutes at room temperature. Upon equilibration, Detection Buffer containing europium-labeled cAMP tracer complex is added to all wells and allowed to react for 1 hour at room temperature. After 1 hour, bound europium-labeled cAMP tracer is measured using a Perkin Elmer Envision plate reader. The quantity of cAMP generated in each well is derived from a standard curve. EC50 is determined using nonlinear regression analysis of the cAMP values over a range of agonist concentration (12 points spanning the range from 30 μM to 100 pM).

How did the EC50 turn out when `Cc1nnnn1-c1ccc(C(=O)N(C2CC2)C2CCN(c3ncc(C(F)(F)F)cc3F)CC2)cc1F` [Example 119, N-Cyclopropyl-3-fluoro-N-(3′-fluoro-5′-trifluoromethyl-3,4,5,6-tetrahydro-2H-[1,2]bipyridinyl-4-yl)-4-(5-methyl-tetrazol-1-yl)-benzamide] was run?
The EC50 was 117 nM.
